Values after ≈ are worked out from the molar mass of the structure shown. Values joined by “and” are separate entries in the source; they are usually repeats but may differ in a detail not shown here. Equal entries are not always repeated. “Also recorded” adds a separate entry of the source. No end group written: not given here. *: point of attachment. For = O=C*
What was measured:
[1] = Binding of complexes to heparin or sucrose octasulfate (dialysis, UV-Visible titration, solubilization)
Experimental: UV-Visible spectrophotometric titration indicates maximum binding occurs at a molar ratio of 18:1 (iron-porphine:heparin).
(a) To this resulting aqueous dispersion of complex is added beef lung heparin, to give final complex-to-heparin ratios of between 95:5 and 5:95 (by weight). […] This apparent solubilization is indicative of paired-ion binding between triethylenetetraamine-iron and heparin.
(b) To the aqueous dispersion of triethylenetetraamine-iron complex is added sucrose octasulfate (SOS), to give final complex-to-SOS ratios of between 95:5 and 5:95 (by weight).

[2] = T1 relaxivity (R1), IBM PC20 Minispectrometer / ICP-AA metal measurement; type: physicochemical
Experimental: Batch quantities of the Fe(III) chelate of deferoxamine are prepared as follows. Deferoxamine mesylate (methanesulfonate) (Ciba-Geigy Limited, Basel, Switzerland), 390 g, is dissolved in pharmaceutical-grade water. Alternatively, the chloride salt of deferoxamine may be used. […] This final batch volume is adjusted as desired, typically to a final volume of 2600 mL. Any remaining trace amounts of unreacted Fe(O)OH are removed and the solution also made aseptic, by passing the supernatant through a 0.22 μm Millipore GV-type filter in a Class 100 laminar flow hood. The resulting batch is stored at 4° C. in an autoclaved, sealed glass container until further use (see Examples below). The final concentration of ferrioxamine (DFe) is determined once again by UV-Visible absorbance spectrophotometry at 430 nm.
The pH is adjusted to 7.0 by addition of 1.0 N NaOH. […] In the case of gadolinium oxide, neutralization with 1.0 N NaOH is not needed. […] This precipitate is rewashed with ethanol and centrifuged (as above), washed with acetone plus centrifuged, and the collected precipitate dried over a stream of dry nitrogen.

[3] = system: syngeneic breast adenocarcinoma; assay: MRI contrast enhancement of breast adenocarcinoma inoculated in liver (and metastases); type: in vivo, Fisher 344 female rats; conditions: 7 MPI, 0.155 mmol/Kg i.v.
Excerpt: FIG. 2A, FIG. 2B, FIG. 3A, FIG. 3B, FIG. 4A, FIG. 4B, FIG. 4C, FIG. 4D and FIG. 8A, FIG. 8B and FIG. 8C show T1-weighted MRI images (TR/TE=800/45, 550/23 and 600/45) performed at 1.0 and 1.5 Tesla, before (Pre) and after (Post) intravenous (i.v.) injection of Ferrioxamine:Dermatan Sulfate Selective Paramagnetic Contrast Agent, prepared as in Examples 2 and 5, and injected i.v. at a Ferrioxamine dose of 0.155 mmol/Kg into Fisher 344 female rats, with syngeneic breast adenocarcinoma inoculated previously into the liver, such that tumor diameters at the time of imaging are between 1.0 cm and 2.5 cm.
(§1) Tumors are not conspicuous on standard T1-weighted Precontrast images. […] The sustained intervals shown in FIG. 8A, FIG. 8B and FIG. 8C are much longer than those typically reported for Gd:DTPA dimeglumine contrast enhancement at body organ sites.
T1-weighted MRI images (TR-TE=800/45) are performed at 1.0 Tesla, before (Pre) and after (Post) intravenous (i.v.) injection of Gd:MPD-DTPA:DS (DS=435 Type, Opocrin) at a dose of 0.155 mmol/kg into Fisher 344 female rats with syngeneic breast adenocarcinomas inoculated by trocar into the livers, as in Example 18 (above). A T2 scout image (TR/TE=2100/85) is performed in advance of the T1 image contrast series, in order to identify the approximate location(s) of tumor nodule(s) (FIG. 18A). […]

[4] = system: syngeneic breast adenocarcinoma; assay: Special histologic iron stain of breast adenocarcinoma; type: in vivo, Fisher 344 female rats; conditions: central tumor, 7-10 MPI
Excerpt: FIG. 6. Special histologic stain (heated ferroferricyanide reaction) of formalin-fixed section of syngeneic breast adenocarcinoma excised from liver inoculation site of Fisher 344 female rats: […] Sulfate Selective MRI Contrast Agent.
as §1

acute myocardial infarct = assay: MRI contrast enhancement of acute myocardial infarcts; type: in vivo, German Shepherd dogs; conditions: 0.155 mmol/Kg
Excerpt: FIG. 11A, FIG. 11B, FIG. 11C and FIG. 11D show T1-weighted MRI ECG-gated cardiovascular images performed at 0.5 Tesla, before (Pre) and after (Post) rapid intravenous (i.v.) infusion of Ferrioxamine:Dermatan Sulfate Selective Paramagnetic Contrast Agent prepared as in Examples 2 and 5, and injected i.v. at an Iron(III) dose of 0.155 mmol/Kg into German Shepherd dogs with acute, 90-min myocardial infarcts (ligature of proximal left anterior descending coronary artery) followed by reperfusion for ca. 90 minutes prior to contrast agent infusion.
In these studies, infarct sizes and positions are documented by double dye infusion performed immediately after MRI imaging.

[5] = system: AT-1 prostate adenocarcinoma; assay: MRI contrast enhancement of AT-1 prostate adenocarcinoma; type: in vivo, Copenhagen rats
Experimental: (§2) FIG. 14A, FIG. 14B, FIG. 14C and FIG. 14D show MRI 4.7 Tesla, T1-weighted images of Copenhagen rats with the AT-1 prostate tumor model (as in FIG. 13A, FIG. 13B, FIG. 13C and FIG. 13D), but rats are injected i.v. with Ferrioxamine Selective Contrast Agent, wherein the Active is non-covalently bound to Oversulfated Dermatan Sulfate, the Agent lyophilized and reconstituted with water just prior to administration at a concentration of 0.332 mmol/mL Fe(III) and administered at the usual dose of 0.155 mmol of Fe(III) per Kg.
as §2, with “15A,” for “14A,”, “15B,” for “14B,”, “15C” for “14C”, “15D” for “14D”, “Chondroitin” for “Dermatan”
as §2, with “16A,” for “14A,”, “16B,” for “14B,”, “16C” for “14C”, “16D” for “14D”, “a non-anticoagulant GAG, Heparan” for “Oversulfated Dermatan”
FIG. 19A, FIG. 19B, FIG. 19C, FIG. 19D and FIG. 19E show T1-weighted images at 4.7 Tesla (TR/TE=250/8) of Copenhagen rats with syngeneic AT-1 prostate adenocarcinomas inoculated into previously prepared skin pouches [Hahn et al. (1993)], and imaged at diameters of 1.0-2.5 cm.
Based on low anticoagulant activity, safety and projected site-localizationpotential, certain alternative glycosaminoglycan carriers and certain alternative physical forms of the resulting Selective MRI Contrast Agents are compared for their relative in vivo potencies of carrier-mediated tumor localization of bound Ferrioxamine. Because of its high spatial resolution and capacity to detect subtle quantitative differences in agent localization, the AT-1 prostate tumor model of Example 19 is used.

[6] = comparison value; cited from earlier work
[7] = Gd(III) when chelated by DTPA; cited from earlier work
[8] = system: syngeneic breast adenocarcinoma; conditions: rat, in vivo, iv; cited from earlier work
[9] = Binding of active to dermatan sulfate carrier (dialysis retention, 500 MW cutoff); conditions: for paired-ion binding of peptide to dermatan sulfate: ca. 60:40 (active to dermatan sulfate)
Experimental: (§3) Multiple batches of Ferrioxamine:Dermatan Sulfate Agent have been prepared.
Vincristine (Sigma Chemical Co., St. Louis) is dissolved in water and mixed with dermatan sulfate at ratios of between 90:10 and 30:70 (w/w) drug to dermatan sulfate.
Amikacin, gentamicin and tobramycin (all obtained from Sigma Chemical Co., St. Louis) are dissolved in water and mixed with either dermatan sulfate (435 Type) or beef lung heparin (Hepar-Kabi-Pharmacia) at ratios of between 90:10 and 30:70 (w/w) drug to glycosaminoglycan.

physchem = conditions: water
Excerpt: as §3

antithrombin III = conditions: cited from earlier work

Compound: 5,10,15,20-tetrakis(1-methyl-4-pyridyl)-21H-23H-porphine [iron-porphine]
- Binding of iron-porphine to heparin [1]: ~100%
- dialysis of iron-porphine alone [1]: nearly completely dialyzed
- molar ratio at maximum binding (iron-porphine:heparin) [1]: 18:1

Compound: CC(=O)N([O-])CCCCCNC(=O)CCC(=O)N([O-])CCCCCNC(=O)CCC(=O)N([O-])CCCCCN.[Fe+3] [Ferrioxamine]
- R1 (T1 relaxivity) [2]: 1.5-1.8 [mmol.sec]^-1 and 1.6-1.8 [mmol.sec]^-1 and 1.6 (mmol.sec)^-1
- MRI contrast enhancement of breast tumor in liver [3]: only very slight or nonexistent
- staining positivity for iron [4]: complete absence of staining positivity
- MRI enhancement of infarct, active without carrier (acute myocardial infarct): no detectible enhancement
- MRI enhancement of infarct, active without carrier (acute myocardial infarct; listed as Ferrioxamine Agent Alone): no detectable enhancement

Compound: CNC[C@H](O)[C@@H](O)[C@H](O)[C@H](O)CO.CNC[C@H](O)[C@@H](O)[C@H](O)[C@H](O)CO.O=C([O-])CN(CCN(CC(=O)[O-])CC(=O)O)CCN(CC(=O)[O-])CC(=O)O.[Gd+3] [Gd:DTPA dimeglumine]
- MRI contrast enhancement of AT-1 tumor ([5]; 7 MPI): the outer rim is not well delineated
- MRI contrast enhancement of AT-1 tumor ([5]; 20 MPI): Marked early contrast fading occurs overall in the tumor
- MRI contrast enhancement of AT-1 tumor ([5]; 40 MPI): enhancement is nearly reverted to background levels; also recorded: enhancement reverts to essentially background levels
- MRI contrast enhancement of AT-1 tumor ([5]; 60 MPI): no residual contrast, except for central cystic regions
- LD50 [6]: 4.0 mmol/kg

Compound: O=C([O-])CN(CCN(CC(=O)[O-])CC(=O)O)CCN(CC(=O)[O-])CC(=O)O.[Gd+3] [Gd:DTPA]
- in vitro R1 [7]: 4.0-4.3 [mmol.sec]^-1
- t1/2 at the site [8]: 12 to 20 min

Compound: CC[C@]1(O)C[C@H]2CN(CCc3c([nH]c4ccccc34)[C@@](C(=O)OC)(c3cc4c(cc3OC)N(C=O)[C@H]3[C@@](O)(C(=O)OC)[C@H](OC(C)=O)[C@]5(CC)C=CCN6CC[C@]43[C@@H]65)C2)C1 [Vincristine]
- retention inside 500 MW cutoff dialysis bag [9]: not the drug alone

Compound: CC(=O)N(O)CCCCCNC(=O)CCC(=O)N(O)CCCCCNC(=O)CCC(=O)N(O)CCCCCN [deferoxamine]
- solubility (physchem): 320 mg/mL (≈ 571 mM)

Compound: N-formyl-met-leu-phe-lys (For-MLFK) [basic white-cell chemoattractant peptide, formulated with dermatan sulfate]
- paired-ion binding of peptide to dermatan sulfate [9]: Strong paired-ion binding
- fluorescence on binding to dermatan sulfate ([9]; emission 518 nm, excitation 257 nm): fluorescence enhancement

Compound: arg-pro-pro-gly-phe-ser-pro-phe-arg (RPPGFSPFR; formulated with dermatan sulfate) [arginine bradykinin, basic peptide, formulated with dermatan sulfate]
- paired-ion binding of peptide to dermatan sulfate [9]: Strong paired-ion binding

Compound: dermatan sulfate
- inhibition of antithrombin III (antithrombin III): neither dermatan sulfate nor its 8-12 unit fragment inhibits

Source: patent publication US6106866A, “In vivo agents comprising cationic drugs, peptides and metal chelators with acidic saccharides and glycosaminoglycans, giving improved site-selective localization, uptake mechanism, sensitivity and kinetic-spatial profiles, including tumor sites” (Access Pharmaceuticals, Inc., priority 1995, dated 2000)
